“Also recorded” adds a separate entry of the source.
Assays:
U937 cells = assay: U937 proliferation, CellTiter-Glo; assay type: cell-based, human; details: 2 days (48 hours) of treatment, dose response
Description: Cell culture: U937 cells were grown in RPMI 1640 (Life Technologies), 10% heat inactivated FBS, and 1% Penicillin-Streptomycin (Invitrogen). CellTiter-Glo Luminescent Cell Viability Assay (Promega) was performed as per manufacturer's instructions. Cell viability was assessed at day 2.
Proliferation assays: U937 cells (ATCC) were grown in RPMI 1640 medium (Gibco) supplemented with 10% FBS and 1% Penicillin-Streptomycin (Gibco) and cultured in a 37° C. incubator with 5% CO2. U937 cells are listed in the database of commonly misidentified cell lines maintained by ICLAC, but authentic stocks are available and certified by ATCC based on DNA short-tandem repeat analysis. […] U937 cells were tested every other week for mycoplasma contamination using the MycoAlert Mycoplasma Detection Kit (Lonza) and consistently confirmed to be negative. Cells were seeded at an initial density of 1,150 cells/well (96 well plate) with chemicals at the concentrations indicated. After 48 hours, cell proliferation rates were determined using CellTiter-Glo (Promega) luminescent cell viability assay as per the manufacturer's instructions.

[1] = test system: mpeg1:mCherry positive cells; assay: Confocal imaging of CHT, mpeg1:mCherry positive cells; assay type: in vivo, zebrafish; details: 10 μM, treated 48-72 hpf, imaged at 72 hpf
Description: Confocal imaging: Double transgenic c-myb:GFP; lyz:dsRed or c-myb:GFP; mpeg1:mCherry embryos from the same clutch were treated between 48-72 hpf (n=4 biological replicates per treatment group) with 10 μM ATRA diluted in E3. Live 72 hpf embryos were embedded in 0.8% low-melting point agarose containing 0.04 mg/mL Tricaine and imaged on a Nikon Eclipe Ti microscope with 20× Plan-Apo DIC N.A. 0.75. CHT cells were counted in Z-stack image projections processed on Imaris software (Bitplane).

runx1 = assay: In situ hybridization of whole embryos, runx1; assay type: in vivo, zebrafish; details: 10 μM, treated 48-72 hpf, fixed at 72 hpf
Description: In situ hybridization: Wildtype AB embryos from the same clutch were treated between 48-72 hpf with 10 μM retinoic acid agonists diluted in E3, fixed at 72 hpf in 4% paraformaldehyde, and processed as previously described. CHT staining in the embryos was blindly scored as high, medium, or low, and summed across 3 independent experiments as done previously. Representative images were acquired on a Nikon ZMS 18 microscope.

Ki-67 = assay: Immunohistochemistry of ACC primagrafts, Ki-67; assay type: in vivo, nude mice; details: ACC x6, x9, x11 primagrafts at conclusion of long-term studies
Description: (§1) Primagraft experiments: For in vivo drug testing, ACC tumor fragments from host animals were implanted subcutaneously into the flank of nude mice (CRL: ATH/NU). Once tumors reached 125-250 mm3, mice were randomized to receive vehicle or drug diluted in 10:90 DMSO:10% hydroxypropyl-beta-cyclodextrin orally until controls reached a tumor volume endpoint of 1-2 cm3 (4-9 mice per group: x5M1 and x6, 4 treated vs. 9 vehicle controls; x9, 4 treated vs. 5 vehicle controls; x11, 5 treated vs. 8 vehicle controls). Mice were treated with ATRA (ACC x6 and x11: 4 mg/mL, 0.2 mL flat dose; ACC×9: 3 mg/mL, 0.2 mL flat dose) or isotretinoin (30 mg/mL, 0.2 mL flat dose). Tumor growth was monitored and mice weighed twice weekly and studies ended when final group reached tumor volume endpoint. No statistical methods were employed to determine the sample size, and no blinding of investigators was performed. […]
Immunohistochemistry: Sectioning and staining was carried out by the Dana-Farber/Harvard Cancer Center Specialized Histopathology Core using standard procedures on ACC x6, x9, and x11 samples (from long-term tumor growth inhibition studies). […] Primary antibody was detected using Bond Polymer Refine Detection kit. […] Images (>200 nuclei each) from three different individual primagrafts were blindly quantitated.

RARA and RARG = assay: RNA-seq of short-term ACC x9 primagrafts, RARA and RARG; assay type: in vivo, human; details: 3 days, n=3, p<0.05
Description: as §1, with “performed. After long-term tumor growth inhibition studies were completed, the ATRA treated mice stopped receiving treatment and were maintained longer as indicated to monitor tumor maintenance after treatment cessation. For long-term tumor growth inhibition studies, ACC x6, x9, and x11 models were used and primagrafts collected at the completion of the study. Short-term kinetics studies were also undertaken with ACC x9 and x5M1 primagrafts involving 3 day ATRA treatments.” for “performed.”

MYB = assay: RNA-seq of short-term ACC x9 primagrafts, MYB; assay type: in vivo, human; details: 3 days, n=3, p<0.05
Description: as §1, with “performed. After long-term tumor growth inhibition studies were completed, the ATRA treated mice stopped receiving treatment and were maintained longer as indicated to monitor tumor maintenance after treatment cessation. For long-term tumor growth inhibition studies, ACC x6, x9, and x11 models were used and primagrafts collected at the completion of the study. Short-term kinetics studies were also undertaken with ACC x9 and x5M1 primagrafts involving 3 day ATRA treatments.” for “performed.”

CC(C=CC1=C(C)CCCC1(C)C)=CC=C/C(C)=C/C(=O)O [ATRA, (E)-3,7-dimethyl-9-(2,6,6-trimethyl-1-cyclo-hexen-1-yl)-2,4,6,8-nonatetraenoic acid]
U937 proliferation (CellTiter-Glo) (U937 cells): inhibited
mpeg1:mCherry+ cells in the CHT [1]: no significant difference; also recorded: no significant effect
runx1 expression (staining) in the CHT (runx1): significant decrease; also recorded: decreased staining
proliferation (Ki-67 positive nuclei) (Ki-67): no significant effect
increase of RARA and RARG gene levels (RARA and RARG): ~40%
decrease of MYB levels (MYB): ~20%

From patent US10668039B2, “Methods for treatment of adenoid cystic carcinoma” (THE CHILDREN'S MEDICAL CENTER CORPORATION, priority 2016, dated 2020)
